Where two headings read alike, the source gives them in different places.
Columns and labels:
[1] = molecular target: neuraminidase of recombinant rvH1N1 influenza A virus (A/Bervig_Mission/1/18) (Influenza A virus, UniProt Q9IGQ6); experiment: biochemical
[2] = test system: Madin-Darby canine kidney (MDCK, ATCC CCL-34) cell
[3] = in vivo; cited from earlier work
in vitro [4] = settings: dog, mdck
[5] = molecular target: neuraminidase (R&D SYSTEM, 4858-NM) of recombinant rvH1N1 influenza A virus of 1918 Spanish flu virus (A/Bervig_Mission/1/18) (Influenza A virus, UniProt Q9IGQ6); experiment: biochemical; design: species or system influenza A virus A/Bervig_Mission/1/18 (rvH1N1)
Chain of neuraminidase (R&D SYSTEM, 4858-NM) of recombinant rvH1N1 influenza A virus of 1918 Spanish flu virus (A/Bervig_Mission/1/18) (Q9IGQ6 36-469 limits assumed): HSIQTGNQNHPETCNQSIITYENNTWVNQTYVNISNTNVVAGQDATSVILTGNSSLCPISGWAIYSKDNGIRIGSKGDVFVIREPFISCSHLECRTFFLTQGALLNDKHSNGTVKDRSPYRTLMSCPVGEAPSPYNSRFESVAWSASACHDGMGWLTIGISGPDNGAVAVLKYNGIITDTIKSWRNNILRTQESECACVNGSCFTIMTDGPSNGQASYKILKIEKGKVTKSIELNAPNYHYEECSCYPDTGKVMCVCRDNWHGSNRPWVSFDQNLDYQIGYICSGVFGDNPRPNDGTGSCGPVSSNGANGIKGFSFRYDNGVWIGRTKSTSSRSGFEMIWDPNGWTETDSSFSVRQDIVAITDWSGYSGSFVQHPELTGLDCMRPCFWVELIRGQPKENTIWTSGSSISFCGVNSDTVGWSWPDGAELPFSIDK

[6] = test system: influenza virus H9N2 (A/Chicken/Korea/MS96/96); settings: read-out: EC50, 50% antiviral concentration
[7] = test system: influenza virus H9N2 (A/Chicken/Korea/MS96/96); settings: read-out: EC50, 50% antiviral concentration; remark: listed apart in the source
[8] = in vivo; cited from earlier work; remark: listed apart in the source
[9] = test system: influenza virus H9N2 (A/Chicken/Korea/MS96/96); experiment: microbe, parasite or virus in culture; settings: H9N2, MDCK, in Gallus gallus, read-out: EC50, 50% antiviral concentration
[10] = test system: influenza virus H9N2 (A/Chicken/Korea/MS96/96); experiment: microbe, parasite or virus in culture; settings: H9N2, MDCK, in Gallus gallus, read-out: EC50, 50% antiviral concentration; remark: listed apart in the source
[11] = test system: influenza virus H9N2 (A/Chicken/Korea/MS96/96); experiment: in vitro; settings: dog
[12] = test system: influenza virus H9N2 (A/Chicken/Korea/MS96/96); experiment: microbe, parasite or virus in culture; settings: H9N2, MDCK, in Gallus gallus, read-out: EC50, 50% antiviral concentration; remark: listed apart in the source
[13] = test system: influenza virus H9N2 (A/Chicken/Korea/MS96/96); experiment: microbe, parasite or virus in culture; settings: H9N2, MDCK, in Gallus gallus, read-out: EC50, 50% antiviral concentration; remark: listed apart in the source
[14] = test system: influenza virus H9N2 (A/Chicken/Korea/MS96/96); experiment: in vitro; settings: dog; remark: listed apart in the source
in vitro [15] = settings: dog
[16] = read-out: Neuraminidase inhibitory activity (IC50) A/Bervig-Mission/1/18 (rvH1N1)

Chain of neuraminidase of recombinant rvH1N1 influenza A virus (A/Bervig_Mission/1/18) (Q9IGQ6 whole entry, looked up): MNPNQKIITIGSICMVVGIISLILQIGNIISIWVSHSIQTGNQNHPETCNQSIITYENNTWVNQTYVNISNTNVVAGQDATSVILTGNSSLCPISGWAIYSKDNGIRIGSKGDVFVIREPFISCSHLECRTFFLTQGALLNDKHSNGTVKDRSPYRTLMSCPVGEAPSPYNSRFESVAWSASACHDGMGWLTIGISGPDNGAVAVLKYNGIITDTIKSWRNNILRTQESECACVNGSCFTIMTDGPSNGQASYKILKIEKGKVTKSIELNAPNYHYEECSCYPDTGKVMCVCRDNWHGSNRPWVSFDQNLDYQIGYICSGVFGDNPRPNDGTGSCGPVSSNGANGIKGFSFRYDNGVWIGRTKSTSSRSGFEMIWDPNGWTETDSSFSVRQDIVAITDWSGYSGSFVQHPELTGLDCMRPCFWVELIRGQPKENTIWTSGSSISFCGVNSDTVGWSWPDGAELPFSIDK

Demethoxycurcumin
IC50 [1, 16]: 3 µM
CC50 [2]: 97 µM

CC(=O)N[C@H]1[C@H]([C@H](O)[C@H](O)CO)OC(C(=O)O)=C[C@@H]1N=C(N)N [Zanamivir]
release from the kidney [3]: quick release from the kidney

COc1cc(/C=C/C(=O)/C=C(O)/C=C/c2ccc(O)cc2)ccc1O [Demethoxycurcumin]
CC50 (in vitro [4]): 97 µM
IC50 [5]: 3 µM

Bisdemethoxycurcumin
EC50 [6]: 182 µM
IC50 [1, 16]: 6 µM
CC50 [2]: > 200 µM
EC50 [7]: > 200 µM

CCOC(=O)C1=C[C@@H](OC(CC)CC)[C@H](NC(C)=O)[C@@H](N)C1 [Oseltamivir]
side effects [8]: severe vomiting

O=C(/C=C(O)/C=C/c1ccc(O)cc1)/C=C/c1ccc(O)cc1 [Bisdemethoxycurcumin]
EC50 [9]: > 200 µM
CC50 (in vitro [4]): > 200 µM
EC50 [10]: 182 µM
IC50 [5]: 6 µM

CC(N)C12CC3CC(CC(C3)C1)C2 (centres unmarked) [Rimatadine]
side effects [8]: severe side effects occur in the nervous system and stomach

CCOC(=O)C1=C[C@@H](OC(CC)CC)[C@H](NC(C)=O)[C@@H](N)C1 [Tamiflu, reference compound]
selectivity ratio [11]: > 200
EC50 [12]: < 1 µM
EC50 [13]: < 1 µM
selectivity ratio [14]: > 200
CC50 (in vitro [15]): > 200 µM

NC12CC3CC(CC(C3)C1)C2 [Amatadine]
side effects [8]: severe side effects occur in the nervous system and stomach

COc1cc(/C=C/C(=O)/C=C(O)/C=C/c2ccc(O)c(OC)c2)ccc1O [Curcumin]
IC50 [1]: 3 µM
CC50 (in vitro [15]): 94.1 µM

From patent US8545903B2 (priority 2009, dated 2013)
